For eleven compounds, GI50 and TGI results are on record in PubChem BioAssay (NCI).

Some test systems named below: M14 melanoma; SW-620 colon; U251 CNS; SR leukemia; HT29 colon; SF-295 CNS; 786-0 renal; K-562 leukemia; MDA-MB-231 breast; UACC-257 melanoma.
What all share (assay): growth of human tumour cells (NCI), 48 h

Where “and” joins values, the source holds several entries; their conditions need not be identical. Equal entries are not always repeated.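 Dose response: 5 concentrations. Exposure: 48 h. Format: 96-well plates. Endpoint: linear interpolation; highest concentration if not reached. The concentration for 50% growth inhibition is given as GI50. Definition used: TGI = concentration required for complete inhibition of growth.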

Turning to `Cc1ccc(S(=O)(=O)N2CCc3ccc(O)c4c3C2Cc2ccc3c(c2-4)OCO3)cc1` (stereo not drawn), the GI50 with M14 melanoma was 0.511 µM; in the assay on SW-620 colon, 0.429 µM; in the assay on U251 CNS it was 0.464 µM; in the assay on SR leukemia, 0.352 µM; in the assay on HT29 colon, 2.79 µM; in the assay with SF-295 CNS it was 1.38 µM. Further, the GI50 in the assay with 786-0 renal is 0.894 µM; in the assay on K-562 leukemia, 0.455 µM; in the assay on MDA-MB-231 breast it was 1.47 µM; in the assay on UACC-257 melanoma, 0.656 µM. Moreover, the TGI was 3.86 µM in the assay with M14 melanoma; above 42.9 µM in the assay with SW-620 colon; 5.92 µM in the assay on U251 CNS; 5.98 µM with SR leukemia; 7.25 µM in the assay with HT29 colon; 12 µM in the assay on SF-295 CNS. The TGI in the assay with 786-0 renal is 20.8 µM; in the assay with K-562 leukemia it was above 100 µM; with MDA-MB-231 breast it was 9.48 µM; in the assay on UACC-257 melanoma, 18.1 µM.
In the case of `Cc1ccc(OCC2OC(n3cnc4c(Br)nc(Br)nc43)CC2Oc2ccc(C)cc2)cc1` (stereo not drawn), the TGI was 10.6 µM and 7.47 µM in the assay on M14 melanoma; 10.1 µM and 12.3 µM with SW-620 colon; 3.99 µM and 4.82 µM with U251 CNS; 4.67 µM in the assay on SR leukemia; 8 µM and 7.2 µM in the assay on HT29 colon; 5.28 µM and 25.9 µM in the assay with SF-295 CNS. In addition, the TGI is 3.48 µM and 9.92 µM in the assay with 786-0 renal; 3.92 µM and > 23.8 µM with K-562 leukemia; 5.27 µM and 4.34 µM with MDA-MB-231 breast; 20.4 µM and 21.3 µM with UACC-257 melanoma. Moreover, the GI50 with SW-620 colon is 3.02 µM; in the assay with U251 CNS, 1.61 µM; with HT29 colon, 2.32 µM; with SF-295 CNS, 2.22 µM; in the assay with 786-0 renal it was 1.57 µM; in the assay with K-562 leukemia, 1.94 µM. For the same compound, the GI50 with MDA-MB-231 breast was 1.74 µM; in the assay with UACC-257 melanoma, 10.3 µM.
As for `CCn1ccc(NS(=O)(=O)c2ccc(N)cc2)nc1=O`, the GI50 in the assay on M14 melanoma, with SW-620 colon, in the assay with U251 CNS, with SR leukemia, in the assay on HT29 colon and with SF-295 CNS was above 100 µM throughout. The GI50 in the assay on 786-0 renal, in the assay on K-562 leukemia, in the assay with MDA-MB-231 breast and in the assay with UACC-257 melanoma was above 100 µM each time. Besides, the TGI in the assay with M14 melanoma, in the assay with SW-620 colon, with U251 CNS, in the assay with SR leukemia, in the assay on HT29 colon and with SF-295 CNS was above 100 µM throughout. Also, the TGI in the assay on 786-0 renal, in the assay on K-562 leukemia, in the assay on MDA-MB-231 breast and in the assay on UACC-257 melanoma was above 100 µM in each case.
Take `FC(F)(F)c1cc(Nc2ccc3cc(OCCCN4CCOCC4)ccc3n2)ccc1Cl`: the GI50 in the assay on M14 melanoma is 1.71 µM; with SW-620 colon it was 1.85 µM; in the assay on U251 CNS, 1.27 µM; in the assay with SR leukemia, 1.4 µM; with HT29 colon it was 1.59 µM; with SF-295 CNS it was 1.37 µM. In addition, the GI50 in the assay with 786-0 renal was 1.3 µM; in the assay on K-562 leukemia, 1.04 µM; with MDA-MB-231 breast, 1.83 µM; in the assay with UACC-257 melanoma it was 1.53 µM. Further, the TGI in the assay with M14 melanoma is 3.66 µM; in the assay on SW-620 colon, 3.6 µM; in the assay with U251 CNS it was 2.75 µM; in the assay with SR leukemia, 4.73 µM; in the assay with HT29 colon it was 3.16 µM; in the assay on SF-295 CNS, 3.17 µM. Besides, the TGI stood at 2.81 µM in the assay on 786-0 renal, 3.83 µM in the assay on K-562 leukemia, 4.2 µM in the assay on MDA-MB-231 breast and 3.32 µM with UACC-257 melanoma.
On to `CN(C)CCOC(=O)Nc1nc2ccc(Sc3ccccc3)cc2[nH]1`, for which the GI50 in the assay with M14 melanoma was 2.28 µM; in the assay on SW-620 colon, 3.69 µM; with U251 CNS, 3.04 µM; in the assay on SR leukemia, 0.921 µM; with HT29 colon, 3.57 µM; with SF-295 CNS, 2.96 µM. Also, the GI50 in the assay with 786-0 renal was 3.8 µM; in the assay with K-562 leukemia, 0.613 µM; with MDA-MB-231 breast, 3.25 µM; in the assay with UACC-257 melanoma it was 13.4 µM. The TGI in the assay on M14 melanoma was determined as 9.29 µM; with SW-620 colon, 16.3 µM; with U251 CNS it was 12.1 µM; in the assay with SR leukemia, 19.4 µM; in the assay on HT29 colon it was 10.7 µM; in the assay with SF-295 CNS it was 13.4 µM. Besides, the TGI in the assay with 786-0 renal is 15 µM; in the assay on K-562 leukemia, 13.7 µM; with MDA-MB-231 breast, 12.3 µM; in the assay on UACC-257 melanoma it was 29.4 µM.
With `CSc1ccc(C(=O)/C=C/c2ccccc2Cl)cc1`, the GI50 is 16.6 µM in the assay on M14 melanoma; 4.95 µM with SW-620 colon; 4.75 µM with U251 CNS; 2.23 µM in the assay with SR leukemia; 21.2 µM in the assay on HT29 colon; 16.1 µM in the assay with SF-295 CNS. In addition, the GI50 in the assay with 786-0 renal is 13.1 µM; in the assay on K-562 leukemia, 18.8 µM; in the assay on MDA-MB-231 breast, 13.3 µM; in the assay on UACC-257 melanoma it was 15.2 µM. Besides, the TGI in the assay with M14 melanoma was 36.1 µM; with SW-620 colon, 28.7 µM; in the assay with U251 CNS, 17.2 µM; in the assay on SR leukemia, 22.4 µM; with HT29 colon, above 100 µM; in the assay with SF-295 CNS it was 33.1 µM. Also, the TGI in the assay with 786-0 renal amounted to 27.6 µM; in the assay on K-562 leukemia, 58.3 µM; with MDA-MB-231 breast, 31.2 µM; with UACC-257 melanoma, 29.3 µM.
As to `COc1cc(/C=C/C(=O)c2c(C)nc3ccccc3c2C)ccc1OCCCN1CCN(C(=O)c2ccco2)CC1`, the GI50 in the assay with M14 melanoma was 11.6 µM; in the assay on SW-620 colon it was 6.03 µM; with U251 CNS it was 7.95 µM; in the assay on SR leukemia, 2.22 µM; in the assay on HT29 colon, 7.71 µM; in the assay on SF-295 CNS, 8.42 µM. Besides, the GI50 in the assay on 786-0 renal is 7.83 µM; in the assay on K-562 leukemia it was 2.57 µM; in the assay with MDA-MB-231 breast, 7.22 µM; with UACC-257 melanoma, 3.28 µM. Moreover, the TGI in the assay with M14 melanoma turned out to be 23.8 µM; in the assay on SW-620 colon, 19.2 µM; with U251 CNS it was 20.6 µM; in the assay on SR leukemia it was 7.47 µM; in the assay on HT29 colon, 23.2 µM; in the assay on SF-295 CNS it was 25.1 µM. In addition, the TGI with 786-0 renal came to 20.5 µM; in the assay with K-562 leukemia, 10.6 µM; in the assay on MDA-MB-231 breast, 29.9 µM; in the assay with UACC-257 melanoma, 16.1 µM.
`N#CC1C(=O)NC(c2ccccc2[N+](=O)[O-])c2sc3c(F)cccc3c21` (stereo not drawn): the GI50 is 16.3 µM in the assay on M14 melanoma; 0.366 µM with SW-620 colon; 1.16 µM with U251 CNS; 7.86 µM with SR leukemia; 11.5 µM in the assay with HT29 colon; 1.11 µM in the assay on SF-295 CNS. The GI50 is 33 µM in the assay on 786-0 renal, 2.39 µM in the assay on K-562 leukemia, 8.53 µM in the assay with MDA-MB-231 breast and 0.961 µM with UACC-257 melanoma. The TGI with M14 melanoma is 47.5 µM; in the assay on SW-620 colon, above 100 µM; with U251 CNS it was 62.6 µM; with SR leukemia it was above 65.4 µM; with HT29 colon, above 93.9 µM; with SF-295 CNS, 30.3 µM. In addition, the TGI in the assay on 786-0 renal is above 100 µM; in the assay on K-562 leukemia, 58.8 µM; in the assay with MDA-MB-231 breast, 54.8 µM; with UACC-257 melanoma, 4.72 µM.
For `COCc1c(-c2ccc(NC(=O)Nc3cc(C(F)(F)F)ccc3F)c(F)c2)c2c(N)ncnn2c1CN1CCOCC1`, the GI50 in the assay on M14 melanoma is 1.5 µM; with SW-620 colon it was 2.58 µM; in the assay with U251 CNS it was 2.56 µM; with SR leukemia it was 0.398 µM; with HT29 colon it was 1.62 µM; in the assay with SF-295 CNS, 1.56 µM. The GI50 was 2.76 µM in the assay on 786-0 renal, 1.18 µM with K-562 leukemia, 1.91 µM in the assay on MDA-MB-231 breast and 3.43 µM with UACC-257 melanoma. Moreover, the TGI in the assay with M14 melanoma is above 10 µM; in the assay with SW-620 colon, above 10 µM; with U251 CNS, above 10 µM; with SR leukemia, 3.9 µM; with HT29 colon it was above 10 µM; in the assay on SF-295 CNS, 6.54 µM. The TGI in the assay with 786-0 renal, with K-562 leukemia, in the assay on MDA-MB-231 breast and with UACC-257 melanoma was above 10 µM each time.
On to `Cc1nccc2c3ccc(OCc4cn(-c5ccc(Cl)cc5)nn4)cc3n(CC(C)C)c12`, for which the GI50 in the assay on M14 melanoma is 1.61 µM; with SW-620 colon, 3.33 µM; in the assay with U251 CNS, 2.62 µM; in the assay with SR leukemia it was 1.03 µM; in the assay with HT29 colon, 1.25 µM; in the assay with SF-295 CNS it was 1.25 µM. Also, the GI50 was 2.09 µM in the assay with 786-0 renal, 0.992 µM in the assay with K-562 leukemia, 4.69 µM with MDA-MB-231 breast and 4.62 µM with UACC-257 melanoma. The TGI with M14 melanoma was 13.9 µM; with SW-620 colon, above 33.3 µM; with U251 CNS, 13.3 µM; in the assay on SR leukemia, 5.53 µM; in the assay with HT29 colon it was 10.4 µM; with SF-295 CNS, 7.64 µM. Moreover, the TGI was 8.33 µM in the assay with 786-0 renal, above 33.3 µM in the assay on K-562 leukemia, 26.5 µM in the assay with MDA-MB-231 breast and 16.8 µM with UACC-257 melanoma.
With `O=[N+]([O-])c1ccc(Sc2ccncn2)c([N+](=O)[O-])c1`, the GI50 with M14 melanoma was 1.64 µM; with SW-620 colon it was 0.413 µM; in the assay with U251 CNS, 5.47 µM; with SR leukemia it was 0.75 µM; with HT29 colon, 1.64 µM; in the assay with SF-295 CNS, 7.29 µM. Also, the GI50 in the assay with 786-0 renal was 2.24 µM; in the assay with K-562 leukemia it was 0.277 µM; in the assay on MDA-MB-231 breast it was 7.79 µM; in the assay with UACC-257 melanoma, 2.81 µM. The TGI in the assay with M14 melanoma is 3.3 µM; in the assay on SW-620 colon, 1.53 µM; in the assay on U251 CNS, 17.8 µM; in the assay with SR leukemia, 3.53 µM; in the assay on HT29 colon it was 3.81 µM; in the assay with SF-295 CNS it was 20.3 µM. The TGI in the assay with 786-0 renal is 4.89 µM; in the assay with K-562 leukemia, 1.95 µM; in the assay with MDA-MB-231 breast, 20.8 µM; in the assay on UACC-257 melanoma it was 9.37 µM.
